According to patent publication US4191808A, “Method of measuring dipeptidyl-amino-peptidase activity” (Ajinomoto Co., Inc., priority 1975, dated 1980):
Peptide text beside a SMILES is read from it. * marks the point of attachment. pNA = O=[N+]([O-])c1ccc(N*)cc1

Experiments:
[1] = target: T1, X-prolyl dipeptidyl-aminopeptidase in human serum (Homo sapiens, UniProt P27487); assay: Hydrolysis of phenylazo substrates by human serum, photometry at 493 nm / 532 nm; type: biochemical; conditions: 0.05 ml human serum, pH 8.7, 37° C., 30 minutes
T1 construct: Even if crude enzyme such as human serum is used as enzyme source, the activity is accurately measured; from tissue; host or cells: human serum (normal subjects and patients)
T1 sequence (P27487 39-766 limits assumed): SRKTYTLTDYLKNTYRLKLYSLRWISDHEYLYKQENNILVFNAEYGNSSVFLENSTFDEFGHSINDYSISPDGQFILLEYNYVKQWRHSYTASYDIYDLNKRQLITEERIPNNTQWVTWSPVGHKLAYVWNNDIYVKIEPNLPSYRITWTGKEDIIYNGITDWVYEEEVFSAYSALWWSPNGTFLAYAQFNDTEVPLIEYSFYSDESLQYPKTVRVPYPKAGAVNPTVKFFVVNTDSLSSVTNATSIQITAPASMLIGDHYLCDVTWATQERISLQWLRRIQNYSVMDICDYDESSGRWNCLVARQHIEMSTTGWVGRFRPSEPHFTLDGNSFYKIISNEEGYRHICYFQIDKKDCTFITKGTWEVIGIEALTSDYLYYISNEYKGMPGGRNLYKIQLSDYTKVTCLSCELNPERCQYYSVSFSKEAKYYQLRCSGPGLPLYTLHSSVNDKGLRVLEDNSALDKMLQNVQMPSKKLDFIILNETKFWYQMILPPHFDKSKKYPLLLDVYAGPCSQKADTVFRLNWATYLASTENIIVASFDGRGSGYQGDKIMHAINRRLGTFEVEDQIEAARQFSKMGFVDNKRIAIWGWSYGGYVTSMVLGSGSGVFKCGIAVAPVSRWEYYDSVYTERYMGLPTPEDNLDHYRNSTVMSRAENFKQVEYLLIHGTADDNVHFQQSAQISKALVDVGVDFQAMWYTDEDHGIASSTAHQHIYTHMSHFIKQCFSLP
Procedure: 3 mM of substrate solutions were prepared as in Example 22, glycyl-L-proline p-phenylazoanilide tosylate and glycyl-L-proline 4-phenylazo-1-naphthylamide being used as substrates.
The assay of enzyme activity was carried out by adding 0.05 ml of human serum to a mixture of 0.5 ml […] glycine-NaOH buffer (pH 8.7) and 0.5 ml substrate solution in the experimental tube, incubating the resulting solution at 37° C. for 30 minutes, and then stopping the reaction with 3.0 ml 1N-hydrochloric acid. The absorbances were A 493 nm=0.18 for glycyl-L-proline p-phenylazoanilide and A 532 nm=0.80 for glycyl-L-proline 4-phenylazo-1-naphthylamide.
The rate of hydrolysis of glycyl-L-proline p-phenylazoanilide was measured as in Example 26, human serum being used as enzyme. However, the blank tube contained water instead of the enzyme solution in the experimental tube, and the standard tube contained 3 mM p-phenylazo-aniline solution instead of the enzyme solution in the experimental tube.

[2] = test system: purified human submaxillary enzyme (X-prolyl dipeptidyl-aminopeptidase); assay: Direct photometric assay of substrate hydrolysis with purified human submaxillary enzyme; type: biochemical; conditions: for Optimum pH: Tris-maleate, glycine-NaOH or amidiol buffer; for Relative enzyme activity (%) Purified human submaxillary enzyme pH 7.0: pH 7.0, 0.15 M Tris-maleate buffer, glycyl-L-proline p-nitroanilide = 100; for Km: pH 7.0, Tris-maleate buffer, mean of duplicate experiments
Procedure: (§1) 3mM substrate solutions were prepared as in Example 22, various dipeptide derivatives or salts thereof being used as substrates. The relative enzyme activities toward various substrates, and the rates and optimum pHs of hydrolysis of various substrates with the enzyme were measured as in Example 22.
^a Activities were measured in 0.15 M Trismaleate buffer at pH 5.6-8.
and in 0.15 M glycineNaOH buffer at pH 8.2-9.4, purified human
submaxillary enzyme being used. For Lalanyl-L-proline pnitroanilide,
amidiol buffer were used instead of glycine buffer, since glycine buffer
interfered the photometry at pH 9-10.
^b Km values were measured at 7.0 in Trismaleate buffer, purified
human submaxillary enzyme being used. The values are the mean of duplicat
(§2) ^c Activities were measured at pH 7.0 in 0.15 M Trismaleate buffer or
(§3) at pH 8.7 in 0.15 M glycineNaOH buffer. The values are the mean of
^d The purified enzyme was obtained by the following method; The
enzyme was solubilized from the microsomal fraction by autodigestion, and
subsequently purified by (NH4)2 SO4 fractionation followed
by Sephadex G200 chromatography.

[3] = target: T1, X-prolyl dipeptidyl-aminopeptidase in human serum; assay: Direct photometric assay of substrate hydrolysis (p-nitroaniline liberated, 385 nm) with human serum as enzyme source; type: biochemical; conditions: for Enzyme activity (μmole/min/1 serum ± S.E.): 3 cases; for Relative enzyme activity (%) Human serum pH 7.0: pH 7.0, 0.15 M Tris-maleate buffer; for Relative enzyme activity (%) Human serum pH 7.0 / Relative enzyme activity (%) Human serum pH 8.7: glycyl-L-proline p-nitroanilide = 100; for Relative enzyme activity (%) Human serum pH 8.7: pH 8.7, 0.15 M glycine-NaOH buffer
Procedure: The relation between the incubation time and the amount of substrate hydrolyzed was examined, glycyl-L-proline p-nitroanilide and human serum being used as substrate and enzyme source, respectively, and the assay of the substrate hydrolyzed was carried out by the following direct photometric method.
Glycyl-L-proline p-nitroanilide tosylate was dissolved in 2% non-ionic detergent (Nikkol NP-10; Nikko Chemicals, Osaka, Japan) aqueous solution in a concentration of 3 mM to prepare the substrate solution. The following four tubes were prepared:
(1) the experimental tube contained 0.5 ml of 0.15 M glycine-NaOH buffer (pH 8.7), 0.5 ml of the substrate solution, and 0.05 ml of human serum
(2) the blank tube contained 0.5 ml of the 0.15 M glycine-NaOH buffer, 0.5 ml of the substrate solution and 0.05 ml of water.
(3) the standard tube contained 0.5 ml of the buffer, 0.5 ml of the substrate and 0.05 ml of 3 mM p-nitroaniline aqueous solution.
(4) the control tube contained 0.5 ml of the buffer and 0.5 ml of the substrate.
All tubes were incubated at 37° C. for the periods listed in Table 1, and the reaction was stopped by the addition of 3.0 ml of 1M acetate buffer (pH 4.2) to every tube. To the control tube, 0.05 ml of the human serum was added after stopping the reaction. A photometer was adjusted to zero with the blank, and the absorbances of the experimental (E), control (C), and standard (S) were read at 385 nm in a cuvette with 1 cm light path. p-Nitroaniline liberated by the enzyme reaction was calculated by the equation [formula]
as §1, §2, §3
The activity of X-prolyl dipeptidyl-aminopeptidase was measured as in Example 22, glycyl-L-proline p-nitroanilide and 88 normal human sera being used as substrate and enzyme, respectively.
The activity of X-prolyl dipeptidyl-aminopeptidase was measured as in Example 22, glycyl-L-proline p-nitroanilide and human sera from patients being used as substrate and enzyme sources, respectively.
The activity of X-prolyl dipeptidyl-aminopeptidase was measured as in Example 22, various X-L-prolyl p-nitroanilides, and human sera from patients being used as substrates and enzyme sources, respectively.

[4] = target: T1, X-prolyl dipeptidyl-aminopeptidase in human serum; assay: Azo-coupling assay of substrate hydrolysis (548 nm) with human serum as enzyme source; type: biochemical; conditions: 37° C., 30 minutes, pH 8.7
Procedure: The relation between the amount of enzyme and the amount of substrate hydrolyzed was examined, glycyl-L-proline p-nitroanilide tosylate and human serum being used as substrate and enzyme source, respectively, and the assay of the substrate hydrolyzed being carried out by the following azo-coupling method.
The following tubes were prepared: (1) the experimental tube contained 1.0 ml of 0.15 M glycine-NaOH buffer (pH 8.7), 1.0 ml of the substrate solution prepared in Example 22, and the volume listed in table 2 of human serum.
(2) the control tube contained 1.0 ml of the glycine-NaOH buffer, and 1.0 ml of the substrate solution.
Both experimental and control tubes were incubated at 37° C. for 30 minutes, and 0.1 ml of the serum was added to the control tube. The reaction was stopped by adding 0.4 ml of 30% perchloric acid aqueous solution. After centrifuging at 3000 rpm for 10 minutes, each 0.5 ml of the supernatant was transferred to another tube; besides 0.1 ml of […] p-nitroaniline aqueous solution and 2.4 ml of 30% perchloric acid solution were added to the standard tube, and 2.5 ml of the perchloric acid solution was added to the blank tube.
To all the four tubes, 0.5 ml of 0.2% sodium nitrite aqueous solution at 4° C., and they were kept at 4° C. for 10 minutes. Then, 0.5 ml of freshly prepared 0.5% ammonium sulfamate aqueous solution was added. After 2 minutes, 1.0 ml of 0.05% N-(1-naphthyl) ethylenediamine solution was added and the mixtures were incubated at 37° C. for 30 minutes in the dark.
A photometer was adjusted to zero with the blank, and the absorbances of the experimental (E), control (C), and standard (S) were read at 548 nm.
p-Nitroaniline formed enzymically was calculated by the equation: [formula] the volume of […] p-nitroaniline aqueous solution used in the standard tube (ml)).

[5] = Time for perfect dissolution in water with stirring; type: physicochemical; conditions: 0.23 mg in 100 ml water with stirring
Procedure: 0.23 mg of crystalline glycyl-L-proline p-nitroanilide tosylate was dissolved in 100 ml water with stirring. It took ca. 30 minutes at 20° C. and ca. 18 minutes at 30° C. for perfect dissolution.
On the other hand, 0.23 mg of porous glycyl-L-proline p-nitroanilide tosylate, which was prepared by freezing […]. mole aqueous solution of the same at -40° C. and then drying the freezed solid at 0.05 mmHg, was dissolved in 100 ml water with stirring as in the above procedure. It only took ca. 10 seconds at 20° C. and ca. 5 seconds at 30° C. for perfect dissolution.

[6] = human sera from patients, Gastric Cancer
[7] = human sera from patients, Hepatitis

SMILES	Optimum pH [2]	Relative enzyme activity (%) Purified human submaxillary enzyme pH 7.0 [2] [%]	Km [2] [µM]	Enzyme activity (μmole/min/1 serum ± S.E.) [3, 6] [μmole/min/1 serum]	Enzyme activity (μmole/min/1 serum ± S.E.) [3, 7] [μmole/min/1 serum]	Enzyme activity (μmole/min/1 serum ± S.E.) ([3]; human sera, Normal (control)) [μmole/min/1 serum]	Relative enzyme activity (%) Human serum pH 7.0 ([3]; human serum) [%]	Relative enzyme activity (%) Human serum pH 8.7 ([3]; human serum) [%]	other results
NCC(=O)N1CCC[C@H]1C(=O)Nc1ccc(N=Nc2ccccc2)c2ccccc12 [Glycyl-L-proline 4-phenylazo-1-naphthyl amide]									absorbance A 532 nm [1]: 0.80
C[C@H](N)C(=O)N1CCC[C@H]1C(=O)Nc1ccc([N+](=O)[O-])cc1.Cl [L-alanyl-L-proline p-nitroanilide, L-Alanyl-L-proline p-nitroanilide hydrochloride] (H-Ala-Pro-pNA)	8.5-8.7	86	14	18.5 ± 1.9	99.5 ± 17.0	36.6 ± 9.6	83	75	
Cc1ccc(S(=O)(=O)O)cc1.Cc1ccc(S(=O)(=O)O)cc1.N=C(N)NCCC[C@H](N)C(=O)N1CCC[C@H]1C(=O)Nc1ccc([N+](=O)[O-])cc1 [L-arginyl-L-proline p-nitroanilide, L-Arginyl-L-proline p-nitroanilide ditosylate] (H-Arg-Pro-pNA)	7.8-8.0	94	230	6.0 ± 0.7	35.5 ± 6.8	13.8 ± 3.6	86	55	
N[C@@H](CC(=O)O)C(=O)N1CCC[C@H]1C(=O)Nc1ccc([N+](=O)[O-])cc1 [L-aspartyl-L-proline p-nitroanilide, L-Aspartyl-L-proline p-nitroanilide] (H-Asp-Pro-pNA)	8.5-8.7	37	81	17.6 ± 1.6	102.5 ± 17.5	37.7 ± 9.0	34	28	
N[C@@H](CCC(=O)O)C(=O)N1CCC[C@H]1C(=O)Nc1ccc([N+](=O)[O-])cc1 [L-glutamyl-L-proline p-nitroanilide, L-Glutamyl-L-proline p-nitroanilide] (H-Glu-Pro-pNA)	8.5-8.7	58	23	13.9 ± 1.3	74.8 ± 17.6	27.5 ± 7.5	54	37	
Cc1ccc(S(=O)(=O)O)cc1.Cc1ccc(S(=O)(=O)O)cc1.NCCCC[C@H](N)C(=O)N1CCC[C@H]1C(=O)Nc1ccc([N+](=O)[O-])cc1 [L-lysyl-L-proline p-nitroanilide, L-Lysyl-L-proline p-nitroanilide ditosylate] (H-Lys-Pro-pNA)	8.5-8.7	121	120	8.2 ± 0.8	49.7 ± 10.2	18.2 ± 4.7	122	71	
Br.O=C(Nc1ccc([N+](=O)[O-])cc1)[C@@H]1CCCN1 [L-proline p-nitroanilide, L-Proline p-nitroanilide hydrobromide, reference compound]									rate of hydrolysis by human serum, as % of hydrolysis of glycyl-L-proline p-nitroanilide ([3]; human serum): 0.7%
Cc1ccc(S(=O)(=O)O)cc1.NCC(=O)N1CCC[C@H]1C(=O)Nc1ccc([N+](=O)[O-])cc1 [glycyl-L-proline p-nitroanilide tosylate, Glycyl-L-proline p-nitroanilide tosylate] (H-Gly-Pro-pNA)									Amount of p-nitroaniline formed ([4]; volume of serum 0.01 ml): 14.24 n mole; Amount of p-nitroaniline formed ([4]; volume of serum 0.02 ml): 32.91 n mole; Amount of p-nitroaniline formed ([4]; volume of serum 0.03 ml): 45.89 n mole; Amount of p-nitroaniline formed ([4]; volume of serum 0.04 ml): 62.50 n mole; Amount of p-nitroaniline formed ([4]; volume of serum 0.05 ml): 82.44 n mole; Amount of p-nitroaniline formed ([4]; volume of serum 0.10 ml): 155.06 n mole; time for perfect dissolution ([5]; 20° C., listed as crystalline glycyl-L-proline p-nitroanilide tosylate): ca. 30 minutes; time for perfect dissolution ([5]; 30° C., listed as crystalline glycyl-L-proline p-nitroanilide tosylate): ca. 18 minutes
Cc1ccc(S(=O)(=O)O)cc1.NCC(=O)N1CCC[C@H]1C(=O)Nc1ccc([N+](=O)[O-])cc1 [glycyl-L-proline p-nitroanilide tosylate] (H-Gly-Pro-pNA)									time for perfect dissolution ([5]; 20° C., tosylate): ca. 10 seconds; time for perfect dissolution ([5]; 30° C., tosylate): ca. 5 seconds
